The subject of data set [1] is TNF-α. Nature of the data set: TNF-α mediated PUMA mRNA up-regulation in islets. In kind it is cell-based. The note with it: human islets. From the text:
PUMA and INS Pre-mNRA as markers for islet health in response to cytokine insults. Inflammation mediated proinflammatory cytokines, including Tumor necrosis factor (TNF)-α, Interleukin(IL)-1β, Interferon (IFN)-γ, play an important role on β cell death, leading to primary graft nonfunction. […] Elevated PUMA mRNA by TNF-α or the TNF-α+ and IFN-γ combination correlated with decreased islet function, as indicated by decreased preproinsulin (INS) pre-mRNA expression (r=−0.45, p<0.001) assessed by the single islet gene expression assay (RT-PCR). TNF-α receptor blocker, Etanercept, abolished TNF-α mediated PUMA mRNA up-regulation in human islets. PUMA mRNA and INS pre-mRNA expressions are used herein as markers for islet health under cytokine insults.

Data set [2] relates to Peripheral blood mononuclear cells (PBMC). Nature of the data set: In vitro biocompatibility: stimulation assay of PBMC, cytokine mRNA. It is filed as cell-based, LEW rat. The note with it: IFN-γ, CXCL1, IL6, GMCSF mRNA levels. The method, then: In Vitro Biocompatibility Assay of SP Hydrogel by Stimulation Assay of Peripheral Blood Mononuclear Cells (PBMC). PBMC from a normal LEW rat were isolated using Histopaque (Sigma-Aldrich, St. Louis, Mo.). 1×10^6 Cells were incubated with either 0.5 μL phosphate buffered saline (PBS), 0.5 mg vicryl suture, 0.5 mg hydrogel, 0.5 mg VS-polymer, 0.5 mg Cys-polymer, or 5 μg of LPS for 20 hours at 37° C. Differences in Ct between the target and control (Actb) mRNA (ΔCt) were used to quantify the relative level for each sample's mRNA expression.
Ex vivo biocompatibility of soluble polymers and SP hydrogel: An SP hydrogel was formed by in situ crosslinking by mixing a cysteine-functionalized (Cys-polymer) and a vinyl sulfone-functionalized (VS-polymer) saccharide-peptide copolymer under mild conditions, according to protocols presented in Chawla et al., Biomacromolecules (2011) 12:560-567, and Chawla et al., Biomaterials (2012) 33:6052-6060, which are incorporated herein in their entirety. […] The mRNA expression of inflammatory cytokines released by PBMC, including TNF-α (killer cell), IFN-γ (T-cell activation), CXCL1 (IL-8 analog, recruiter), IL6 (killer cell), and GMCSF (antigen presentation) was assessed to detect any immune stimulatory effect.

The target of the next data set is T1, IFN-γ (Homo sapiens, UniProt P01579).
T1 sequence (P01579 24-161 limits assumed): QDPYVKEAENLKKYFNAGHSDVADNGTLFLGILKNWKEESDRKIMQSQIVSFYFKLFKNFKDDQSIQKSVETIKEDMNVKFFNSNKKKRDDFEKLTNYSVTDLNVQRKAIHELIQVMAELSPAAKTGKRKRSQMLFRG
The conditions noted are these: cited from earlier work.

In data set [3] the target is TNF-α (Homo sapiens, UniProt P01375). The note with it: cited from earlier work.

Consider 4 substances from patent publication US9289500B2, “Saccharide-peptide hydrogels” (The Regents of the University of California, priority 2013, dated 2016).

Bridges are numbered along the chain shown (N, C = ends). Where no end group is shown, it is not given here. The star is where a group is joined. Acm = CC(=O)NC*

Chain of TNF-α (Homo sapiens, UniProt P01375) (P01375 77-233 limits assumed, species assumed): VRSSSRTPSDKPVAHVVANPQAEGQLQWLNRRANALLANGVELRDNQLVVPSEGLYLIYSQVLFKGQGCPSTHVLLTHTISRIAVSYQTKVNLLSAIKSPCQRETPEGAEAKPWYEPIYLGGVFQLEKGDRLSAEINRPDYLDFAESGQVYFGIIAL

As to Etanercept, the “TNF-α mediated PUMA mRNA up-regulation” value in the data set with TNF-α [1] is “abolished”. In the case of lipopolysaccharide [LPS], the “stimulatory effect / mRNA response compared to LPS” value in data set [2] is “highest stimulatory effect”. With “AYC(acm)RDGKIGPPKLDIRKEEKQI (AYC(Acm)RDGKIGPPKLDIRKEEKQI) [antagonizing peptide for IFN-γ; acm: acetamidomethyl]”, the “antagonism of IFN-γ” value with IFN-γ is listed as “potent antagonists”. Take “YCWSQYLCY (disulfide 2-8 (inferred)) [antagonizing peptide for TNF-α]”: the “antagonism of TNF-α” value in the data set with TNF-α [3] is “potent antagonists”.
